Data as given in US9567371B2, “Short beta-defensin-derived peptides” (Yeda Research and Development Co. Ltd., priority 2009, dated 2017).
Peptide text beside a SMILES is read from it.

Columns and labels:
CCR5 = CCR5 membrane expression (flow cytometry); assay type: cell-based, human; settings: tested cells, 3 hrs preincubation
Description: FIGS. 10A-10C. TL-1 and cTL1 down-regulate CXCR4 expression on human cord blood CD34^+ and G2 cells. Human cord blood CD34^+ and G2 cells were incubated with 1 or 10 μM TL-1 or cyclic TL-1 for 3 hrs or left untreated (UT), washed, stained with CXCR4 and CCR5 Ab and analyzed by flow cytometry. Representative histograms from 3 separate experiments are shown. FIG. 10A—effect of TL-1 on CXCR4 expression. FIG. 10B—effect of cTL-1 on CXCR4 expression. FIG. 10C—effects of TL-1 and cTL-1 on CCR5 expression.
Various cell types (1×10^6/mL) were pretreated with the peptides for 3 hrs as described above, washed and then stained in staining buffer (PBS supplemented with 0.5% FCS and 0.01% sodium azide) with mouse anti-human CXCR4-PE, CCR5-FITC (R&D Systems, Minneapolis, Minn.) or CD45-FITC (ImmunoQuality Products, Groningen, The Netherlands) mAbs for 30 min at 4° C. and analyzed by flow cytometry as described (Kalinkovich, A., et al., 2006). Appropriate IgG were used as the isotype controls.
Recently, it has been shown that HBD3 could induce internalization of CXCR4 but not of CCR5 in the CEM T cells expressing both CXCR4 and CCR5 (Feng, Z. et al., 2006) implying CXCR4 specificity in HBD3 action.

[1] = test system: G2 cells and mouse BM MNC; test: Chemotaxis assay (untreated cells migrate towards peptide in bottom chamber); assay type: cell-based; settings: 1 and 10 μM peptide in bottom chamber, 4 hrs
Description: FIGS. 9A-9B. AK-1 increases SDF-1-induced migration and chemotaxis of G2 and mouse bone marrow mononuclear cells (BM MNC). (A) G2 cells and mouse BM MNC were preincubated with 1 and 10 μM AK-1 for 3 hrs in serum free medium, washed and allowed to migrate towards SDF-1. Migrated cells were collected and calculated by flow cytometry. Percentage of migrated cells is presented as compared to untreated control taken as 100%. (B) Untreated G2 cells and mouse BM MNC were put to the upper chambers of the transwell plates and allowed to migrate towards 1 and 10 μM AK-1 present the bottom chambers of the transwell plates for 4 hrs. Percentage of migrated cells is presented as compared to untreated (UT) control taken as 100%. Data shown are the mean±SD of 2 separate experiments. *P<0.05 compared to control.
Various cells (1×10^6/mL), untreated or pretreated with peptides for 3 hrs at 96-well flat bottom plates at 37° C. were washed, 2×10^5 cells/100 μL were added to the upper chambers of Costar 24-well transwell plates with 5 μm pore filters (Corning Inc., Corning, N.Y.) and allowed to migrate for 2-4 hrs at 37° C. (95% humidity, 5% CO2) spontaneously or towards 50 ng/mL SDF-1 (rhSDF-1, Peprotech, Rocky Hill, N.J.) in medium supplemented with 10% FCS. […] Migrated cells were collected from the lower chambers and counted using a flow cytometer. […]

pre-B-ALL G2 cells = test: Cell toxicity assay (propidium iodide exclusion, flow cytometry); assay type: cell-based, human; settings: 6 and 24 h, FIG. 1
Description: FIG. 1. […] G2 cells (1×10^6/ml) were cultured in 96-well flat-bottom wells in serum free IMDEM culture medium supplemented with L-glutamine and antibiotics, for 6 and 24 h at 37° C. with the indicated peptides. Untreated cells served as a control. After treatment, cells were stained with propidium iodide (PI) and its exclusion was analyzed by flow cytometry. Data shown are the percentage of Pr (dead) cells. Vertical bars represent standard deviation of duplicate experiments. *P<0.05 compared to untreated control.
Pre-B-ALL G2 cells and freshly isolated primary human CD3^+ T cells (1×10^6/ml) were cultured in 96-well flat-bottom wells in serum free IMDM or RPMI 1640 medium, respectively, both supplemented with L-glutamine and antibiotics, for 6 and 24 hrs at 37° C. (95% humidity, 5% CO2) with 10 μM, 100 μM or 1 mM of the peptides. Untreated cells served as a control. Cell viability was determined by propidium iodide (PI) exclusion by flow cytometry as described (Goichberg, P., et al., 2006).
In order to test cytotoxicity of the peptides, human pre-B-ALL G2 cells and freshly isolated primary human CD3^+ T cells (1×10^6/ml) were cultured in with 10 μM, 100 μM or 1 mM of TL-1, AK-1 and cyclic TL-1, as described in the Material and Methods. All tested peptides were not toxic for G2 cells (FIG. 1) as well as for primary human T cells at 10 μM and 100 μM. Even in the highest concentration, 1 mM, the peptides killed only 8-12% and 14-16% cells treated for 6 and 24 hrs, respectively, indicating a very low cytotoxicity of the peptides.

G2 cells = test: Homing assay of pretreated G2 cells in NOD/SCID mice; assay type: in vivo, mouse; settings: 10 μM pretreatment 3 hrs, i.v. into non-irradiated NOD/SCID mice, 16 hrs
Description: FIGS. 8A-8D. Effect of TL-1 and cyclic TL-1 on in vitro and in vivo cell migration. (A, C) Human CD3^+, G2, cord blood CD34^+ and peripheral blood mononuclear (PBMC) cells were preincubated with 1 and 10 μM TL-1 for 3 hrs in serum free medium, washed and allowed to migrate towards SDF-1. Migrated cells were collected and calculated by flow cytometry. Percentage of migrated cells is presented as compared to untreated (UT) control taken as 100%. (B) G2 cells were similarly preincubated with 10 μM TL-1 or cTL-1 for the indicated periods of time and percentage of migrated cells is depicted. (D) Homing assay. G2 cells were similarly preincubated with 10 μM TL-1 or cTL-1 for 3 hrs, washed and i.v. injected (10×10^6/mouse) to non-irradiated NOD/SCID mice. Percentage of G2 cells in the murine BM and spleens was determined by staining with anti-human CD45 Ab and compared with untreated (UT) cells. […]
G2 cells (10×10^6/mL) pretreated with the peptides for 3 hrs as described above, were injected i.v. into non-irradiated NOD/SCID mice, which were sacrificed 16 hrs later. Samples of BM cells flushed from both femur and tibia bones and spleen cell suspension were prepared, and the percentage of human cells was determined by staining with anti-human CD45-FITC mAb (ImmunoQuality Products, Groningen, The Netherlands) as described (Spiegel, A., et al., 2004).

N=C(N)NCCC[C@@H]1NC(=O)CNC(=O)[C@H](CCCNC(=N)N)NC(=O)[C@H](CCCCN)NC(=O)[C@H](CCCCN)NC(=O)[C@H](CCCNC(=N)N)NC(=O)[C@H](CCCNC(=N)N)NC(=O)[C@H](CS)NC(=O)[C@H](CS)NC(=O)[C@H](CCCCN)NC1=O [cyclic TL-1, 1,10-cyclo[RGRKCCRRKK]] (cyclo(CCRRKKRGRK))
membrane expression of CCR5 (CCR5): either unaffected or slightly increased
chemotaxis of untreated cells towards the peptide [1]: ineffective
cellular toxicity (percentage of PI+ dead cells) (pre-B-ALL G2 cells): Low cellular toxicity
homing of pretreated G2 cells to the BM (G2 cells): decrease the homing
homing of pretreated G2 cells to the spleen (G2 cells): decreased G2 cell homing
